17 compounds from patent publication US8871777B2, “Phenylpyrimidone compounds, the pharmaceutical compositions, preparation methods and uses thereof” (Topharman Shanghai Co., Ltd., priority 2008, dated 2014) can be followed below.

SMILES strings stand for the structures. pIC50: −log10 of the molar value.

In experiment [1] the target is T1, human blood platelet PDE5 (Homo sapiens, UniProt O76074).
T1 construct: obtained by suitably treating various tissues and separating the enzyme with FPLC; from tissue; host or cells: human blood platelets
The experiment can be described thus: PDE5 enzyme inhibition activity test (scintillation proximity). The class given is biochemical. The method, then: (§1) More specifically, PDE5 and PDE3 were obtained from human blood platelet, and PDE6 was separated from bovine retina. Upon enzyme was separated out, the enzyme inhibition activity test would be carried out immediately. The said enzyme inhibition activity test was performed by directly detecting the scintillation proximity of AMP/GMP using TRKQ7100 and TRKQ7090 kits, which was generally as follows. In the presence of different concentrations of inhibitor and a small amount of substrate, 10 μl of buffer (50 mM Tris/HCl PH 7.5, 8.3 mM MgCl2, 1.7 mM EGTA) was added, and then water was added to a final volume of 100 μl. The reaction was initiated with a fixed amount of enzyme, incubated at 30° C. for 30 min, and then quenched with 50 μl of yttrium silicate beads comprising zinc sulphate. After shaken for 20 min, the reaction mixture was put in dark and settled for 30 min, and then readed on a BECKMAN LS6500 MULTI-PURPOSE SCINTILLATION COUNTER.
For orientation: Scintillation proximity formats need no separation of bound from free tracer.

The target in another experiment is T2, PDE6 in bovine retina (Bos taurus, UniProt P11541+P23439).
T2 construct: obtained by suitably treating various tissues and separating the enzyme with FPLC; from tissue; host or cells: bovine retina
T2 sequence (P11541 2-856 limits assumed): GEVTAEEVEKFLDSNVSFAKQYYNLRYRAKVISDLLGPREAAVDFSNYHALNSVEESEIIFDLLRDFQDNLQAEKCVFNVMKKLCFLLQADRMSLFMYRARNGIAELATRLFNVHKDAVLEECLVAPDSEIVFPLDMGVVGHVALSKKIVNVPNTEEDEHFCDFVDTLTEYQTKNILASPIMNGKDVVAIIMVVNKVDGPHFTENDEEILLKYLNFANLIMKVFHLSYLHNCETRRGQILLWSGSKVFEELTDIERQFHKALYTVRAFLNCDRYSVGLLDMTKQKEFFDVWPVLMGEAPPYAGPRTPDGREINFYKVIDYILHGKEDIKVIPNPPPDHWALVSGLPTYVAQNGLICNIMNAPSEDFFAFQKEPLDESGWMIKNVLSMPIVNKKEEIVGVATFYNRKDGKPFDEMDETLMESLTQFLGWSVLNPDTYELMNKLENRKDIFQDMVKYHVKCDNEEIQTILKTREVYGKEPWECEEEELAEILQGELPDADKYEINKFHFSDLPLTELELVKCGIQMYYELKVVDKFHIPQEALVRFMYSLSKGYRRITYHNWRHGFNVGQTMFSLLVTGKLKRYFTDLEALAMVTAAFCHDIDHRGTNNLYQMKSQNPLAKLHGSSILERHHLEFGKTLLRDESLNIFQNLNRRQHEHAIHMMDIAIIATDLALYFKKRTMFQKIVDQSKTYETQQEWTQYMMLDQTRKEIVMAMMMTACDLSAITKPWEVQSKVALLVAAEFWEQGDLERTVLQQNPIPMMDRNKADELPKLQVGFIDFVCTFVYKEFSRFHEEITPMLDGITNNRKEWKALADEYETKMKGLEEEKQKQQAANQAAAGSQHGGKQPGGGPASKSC
T2 sequence (P23439 2-850 limits assumed): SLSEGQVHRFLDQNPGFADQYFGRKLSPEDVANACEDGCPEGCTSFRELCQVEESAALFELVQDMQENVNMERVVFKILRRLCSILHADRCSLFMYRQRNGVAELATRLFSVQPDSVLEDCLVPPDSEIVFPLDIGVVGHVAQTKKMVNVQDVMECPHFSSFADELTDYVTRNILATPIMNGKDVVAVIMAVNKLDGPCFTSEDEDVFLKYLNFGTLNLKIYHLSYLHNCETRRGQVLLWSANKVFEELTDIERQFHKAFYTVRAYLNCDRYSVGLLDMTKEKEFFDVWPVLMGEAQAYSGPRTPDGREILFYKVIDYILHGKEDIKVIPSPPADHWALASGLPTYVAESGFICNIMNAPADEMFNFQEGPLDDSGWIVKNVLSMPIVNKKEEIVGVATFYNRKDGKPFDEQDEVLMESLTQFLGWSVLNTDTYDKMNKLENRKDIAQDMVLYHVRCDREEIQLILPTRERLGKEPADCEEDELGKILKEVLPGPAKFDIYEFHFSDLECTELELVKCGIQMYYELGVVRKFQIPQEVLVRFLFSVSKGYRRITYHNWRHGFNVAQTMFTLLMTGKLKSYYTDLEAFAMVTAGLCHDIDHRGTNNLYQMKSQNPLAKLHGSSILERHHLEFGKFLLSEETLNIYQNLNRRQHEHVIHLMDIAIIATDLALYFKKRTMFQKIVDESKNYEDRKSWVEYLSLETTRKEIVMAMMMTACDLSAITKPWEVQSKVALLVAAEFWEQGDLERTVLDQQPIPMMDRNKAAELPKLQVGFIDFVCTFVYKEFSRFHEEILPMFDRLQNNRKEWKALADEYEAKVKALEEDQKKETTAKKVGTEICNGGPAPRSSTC
The experiment can be described thus: PDE6 enzyme inhibition activity test (scintillation proximity). The settings on record: for pIC50: PDE6 separated from bovine retina, read-out: PDE6 IC50; for PDE6 IC50/PDE5 IC50: selectivity, ratio of IC50 PDE6/IC50 PDE5. It is filed as biochemical. How it is done: as §1

The pIC50 is the IC50 on a negative log10 scale, so that one unit is a factor of ten. With `CCCOc1ccc(NS(C)(=O)=O)cc1-c1nc(C(C)C)c(Br)c(=O)[nH]1` [Example 50, 5-Bromo-6-isopropyl-2-(2-n-propoxy-5-mesylamidophenyl)pyrimid-4(3H)-one], in experiment [1] (PDE5 table), the pIC50 is 8.91. Also, at PDE6 in bovine retina, the negative logarithm of the IC50 (pIC50) is 6.94 and the “PDE6 IC50/PDE5 IC50” value is recorded as 91.9.
For `CCCOc1ccc(NS(C)(=O)=O)cc1-c1nc(CC)c(CC)c(=O)[nH]1` [Example 51, 5,6-Diethyl-2-(2-n-propoxy-5-mesylamidophenyl)pyrimid-4(3H)-one], the pIC50 in experiment [1] (PDE5 table) is 8.91; in experiment [1] (as repeated in the PDE6 table), 8.91; on PDE6 in bovine retina it was 7.46. The “PDE6 IC50/PDE5 IC50” value at PDE6 in bovine retina is 28.3.
For the compound `CCCOc1ccc(NC(C)=O)cc1-c1nc(C(C)C)c(Br)c(=O)[nH]1` [Example 52, N-(3-(1,6-dihydro-4-isopropyl-5-bromo-6-oxopyrimidin-2-yl)-4-propoxyphenyl)acetamide], the pIC50 is 8.84 in experiment [1] (PDE5 table), 8.84 in experiment [1] (as repeated in the PDE6 table) and 7.28 on PDE6 in bovine retina. Moreover, the “PDE6 IC50/PDE5 IC50” value on PDE6 in bovine retina is listed as 36.0.
As for `CCCOc1ccc(NC(C)=O)cc1-c1nc(CC)c(CC)c(=O)[nH]1` [Example 53, N-(3-(1,6-dihydro-4,5-diethyl-6-oxopyrimidin-2-yl)-4-propoxyphenyl)acetamide], the figures for the negative-log IC50 (pIC50) (in experiment [1] (PDE5 table); in experiment [1] (as repeated in the PDE6 table); on PDE6 in bovine retina) were 9.24, 9.24 and 7.43, respectively. Further, the “PDE6 IC50/PDE5 IC50” value on PDE6 in bovine retina stood at 66.2.
`CCCOc1ccc(NC(=O)CC)cc1-c1nc(CC)c(CC)c(=O)[nH]1` [Example 54, N-(3-(1,6-dihydro-4,5-diethyl-6-oxopyrimidin-2-yl)-4-propoxyphenyl)propionamide]: the pIC50 is 8.92 in experiment [1] (PDE5 table), 8.92 in experiment [1] (as repeated in the PDE6 table) and 7.88 at PDE6 in bovine retina. Further, the “PDE6 IC50/PDE5 IC50” value on PDE6 in bovine retina is 10.9.
Regarding `CCCOc1ccc(NC(=O)C2CCCCC2)cc1-c1nc(CC)c(CC)c(=O)[nH]1` [Example 55, N-(3-(1,6-dihydro-4,5-diethyl-6-oxopyrimidin-2-yl)-4-propoxyphenyl)cyclohexamide], the negative-log IC50 (pIC50) in experiment [1] (PDE5 table) is 9.04; in experiment [1] (as repeated in the PDE6 table), 9.03; on PDE6 in bovine retina, 7.70. On PDE6 in bovine retina, the “PDE6 IC50/PDE5 IC50” value was 21.8.
Taken in the same sequence, the figures for `CCCOc1ccc(NC(=O)C2CC(O)CN2C(=O)OC(C)(C)C)cc1-c1nc(CC)c(CC)c(=O)[nH]1` (stereo not shown) [Example 57, N-(3-(1,6-dihydro-4,5-diethyl-6-oxopyrimidin-2-yl)-4-propoxyphenyl)-1-t-butyloxycarbonyl-4-hydroxyprolylamide] were 8.92, 8.92, 8.09 and 6.9.
The corresponding values for `CCCOc1ccc(C(=O)N2CCOCC2)cc1-c1nc(CC)c(CC)c(=O)[nH]1` [Example 59, (Morpholin-1-yl)(3-(4,5-diethyl-1,6-dihydro-6-oxopyrimidin-2-yl)-4-n-propoxy)benzophenone] are 9.24, 9.24, 8.10 and 13.7.
Turning to `CCCOc1ccc(C(=O)N2CCCCC2)cc1-c1nc(CC)c(CC)c(=O)[nH]1` [Example 60, (piperid-1-yl)(3-(4,5-diethyl-1,6-dihydro-6-oxopyrimidin-2-yl)-4-n-propoxy)benzophenone], the pIC50 in experiment [1] (PDE5 table) was 8.69; in experiment [1] (as repeated in the PDE6 table), 8.69; at PDE6 in bovine retina it was 8.09. Besides, the “PDE6 IC50/PDE5 IC50” value at PDE6 in bovine retina turned out to be 4.0.
`CCCOc1ccc(C(=O)N2CCCC2C(N)=O)cc1-c1nc(CC)c(CC)c(=O)[nH]1` (stereo not shown) [Example 61]: the negative logarithm of the IC50 (pIC50) is 8.71 in experiment [1] (PDE5 table), 8.71 in experiment [1] (as repeated in the PDE6 table) and 7.54 at PDE6 in bovine retina. At PDE6 in bovine retina, the “PDE6 IC50/PDE5 IC50” value worked out at 15.1.
For `CCCOc1ccc(C(=O)N2CCOCC2)cc1-c1nc(C(C)C)c(Br)c(=O)[nH]1` [Example 63, (Morpholin-1-yl)(3-(4-isopropyl-5-bromo-1,6-dihydro-6-oxopyrimidin-2-yl)-4-n-propoxy)benzophenone], the negative logarithm of the IC50 (pIC50) in experiment [1] (PDE5 table) was 8.91; in experiment [1] (as repeated in the PDE6 table), 8.91; on PDE6 in bovine retina, 7.48. Further, the “PDE6 IC50/PDE5 IC50” value at PDE6 in bovine retina was 26.9.
As for `CCCOc1ccc(NC(N)=O)cc1-c1nc(CC)c(CC)c(=O)[nH]1` [Example 67, 1-(3-(4,5-Diethyl-1,6-dihydro-6-oxopyrimidin-2-yl)-4-n-propoxyphenyl)urea], the figures for the negative logarithm of the IC50 (pIC50) (in experiment [1] (PDE5 table); in experiment [1] (as repeated in the PDE6 table); at PDE6 in bovine retina) were 8.79, 8.79 and 7.57, respectively. In addition, at PDE6 in bovine retina, the “PDE6 IC50/PDE5 IC50” value was 16.7.
Take `CCCOc1ccc(NC(=O)NCC)cc1-c1nc(CC)c(CC)c(=O)[nH]1` [Example 68, 1-(3-(4,5-Diethyl-1,6-dihydro-6-oxopyrimidin-2-yl)-4-n-propoxyphenyl)-3-ethylurea]: the pIC50 is 9.28 in experiment [1] (PDE5 table), 9.28 in experiment [1] (as repeated in the PDE6 table) and 7.79 on PDE6 in bovine retina. In addition, the “PDE6 IC50/PDE5 IC50” value on PDE6 in bovine retina stood at 31.0.
`CCCOc1ccc(C(=O)CN2CCOCC2)cc1-c1nc(CC)c(CC)c(=O)[nH]1` [Example 76, 5,6-diethyl-2-(5-(2-morpholinylacetyl)-2-n-propoxyphenyl)pyrimid-4(3H)-one]: the negative-log IC50 (pIC50) in experiment [1] (PDE5 table) is 8.70; in experiment [1] (as repeated in the PDE6 table), 8.70; at PDE6 in bovine retina, 7.60. In addition, on PDE6 in bovine retina, the “PDE6 IC50/PDE5 IC50” value was 12.7.
In the case of `CCCOc1ccc(C(=O)NCC(=O)OCC)cc1-c1nc(CC)c(CC)c(=O)[nH]1` [Example 89, Ethyl 2-(3-(4,5-diethyl-1,6-dihydro-6-oxopyrimidin-2-yl)-4-n-propoxybenzamido)acetate], the values for the pIC50 (in experiment [1] (PDE5 table); in experiment [1] (as repeated in the PDE6 table); on PDE6 in bovine retina) were 8.70, 8.70 and 7.93, respectively. Also, the “PDE6 IC50/PDE5 IC50” value on PDE6 in bovine retina is 5.88.
For `CCCOc1ccc(NC(=O)C(F)(F)F)cc1-c1nc(CC)c(CC)c(=O)[nH]1` [Example 98, N-(3-(4,5-diethyl-1,6-dihydro-6-oxopyrimidin-2-yl)-4-n-propoxyphenyl)-2,2,2-trifluoroacetamide], the negative-log IC50 (pIC50) is 8.56 in experiment [1] (PDE5 table), 8.56 in experiment [1] (as repeated in the PDE6 table) and 7.98 at PDE6 in bovine retina. At PDE6 in bovine retina, the “PDE6 IC50/PDE5 IC50” value is reported as 3.77.
With `CCCOc1ccc(NC(=O)CC(=O)OCC)cc1-c1nc(CC)c(CC)c(=O)[nH]1` [Example 102, ethyl N-(3-(4,5-diethyl-1,6-dihydro-6-oxopyrimidin-2-yl)-4-n-propoxyphenyl)aminoformylacetate], the pIC50 was 8.34 in experiment [1] (PDE5 table), 8.34 in experiment [1] (as repeated in the PDE6 table) and 7.61 on PDE6 in bovine retina. Moreover, the “PDE6 IC50/PDE5 IC50” value at PDE6 in bovine retina is 5.33.
